Laboratory results reported in PMC9136971 (ACS Central Science, 2022).
Where a SMILES comes first, the peptide text is derived from it. The star is where a group is joined. X1 = O=C(O)[C@H]1CSC(c2nc3ccc(OCc4ccc(N*)cc4)cc3s2)=N1

Legend:
[1] = Baseline uptake and biodistribution study in healthy mice; type: in vivo, mouse; conditions: for baseline bioluminescence distribution: healthy Fluc+ BALB/c mice, D-luciferin 3 mg i.p., GBLI2 200 μg i.v. retro-orbital
A20Luc+ cells = assay: Cell viability assay; type: cell-based, mouse; conditions: 5 μM – 100 μM, 37 °C, 3.5 h, absorbance at 490 nm
[2] = test system: activated untransduced CD8+ T cells; assay: Cell viability assay; type: cell-based, mouse; conditions: 5 μM – 100 μM, 37 °C, 3.5 h, absorbance at 490 nm
CAR T cells = assay: Cell viability assay; type: cell-based, mouse; conditions: 5 μM – 100 μM, 37 °C, 3.5 h, absorbance at 490 nm
[3] = test system: untransduced activated CD8+ T cells; assay: Cellular uptake assay; type: cell-based, mouse; conditions: 5 μM, pre-incubation 30 min, 2.5 h at 4 or 37 °C, flow cytometry
[4] = DLS size distribution and zeta potential of nanoaggregates; type: physicochemical; conditions: without gzmB cleavage

O=C([O-])[C@H]1CSC(c2nc3ccc(O)cc3s2)=N1.[K+] [D-luciferin, D-luciferin, potassium salt]
baseline bioluminescence distribution [1]: mainly restricted to the abdomen

CCSSC[C@H](NC(=O)[C@H](CC(=O)O)NC(=O)[C@H](Cc1ccccc1)NC(=O)[C@H](CCC(=O)O)NC(=O)[C@@H](NC(C)=O)[C@@H](C)CC)C(=O)NCC(=O)N[C@@H](Cc1cn(CCCNC(=O)CCCCC[N+]2=C(/C=C/C=C/C=C3/N(C)c4ccc(S(=O)(=O)[O-])cc4C3(C)C)C(C)(C)c3cc(S(=O)(=O)O)ccc32)nn1)C(=O)NCc1ccc(C(=O)NCCCOc2cnc(C#N)nc2)cc1 [G-SNAT-Cy5]
cell viability (MTS) (A20Luc+ cells): well tolerated
cell viability (MTS) [2]: well tolerated
cell viability (MTS) (CAR T cells): well tolerated
G-SNAT-Cy5 uptake at 4 °C versus 37 °C (MFI-Cy5 of viable cells) [3]: significantly attenuated
organ distribution of fluorescence after dissection ([1]; 5 nmol retro orbital, 1 h post i.v. injection, organ imaging, n = 3): mainly associated with the gastrointestinal tract

CC[C@H](C)[C@H](NC(C)=O)C(=O)N[C@@H](CCC(=O)O)C(=O)N[C@@H](Cc1ccccc1)C(=O)N[C@@H](CC(=O)O)C(=O)Nc1ccc(COc2ccc3nc(C4=N[C@@H](C(=O)O)CS4)sc3c2)cc1 [GBLI2] (Ac-IEFD-X1)
baseline bioluminescence distribution [1]: highly concentrated in the spleen

(4S,10R,13S,16S,19S)-19-((2S,3S)-2-acetamido-3-methylpentanamido)-16-benzyl-13(carboxymethyl)-1-(4-((3-((2-cyanopyrimidin-5-yl)oxy)propyl)carbamoyl)phenyl)-10-((ethylsulfinothioyl)methyl)-3,6,9,12,15,18-hexaoxo-4-(prop-2-yn-1-yl)-2,5,8,11,14,17-hexaazadocosan-22-oic acid [G-SNAT]
cell viability (MTS) (A20Luc+ cells): well tolerated
cell viability (MTS) [2]: well tolerated
cell viability (MTS) (CAR T cells): well tolerated
DLS signal of G-SNAT uncleaved by gzmB [4]: No DLS signal could be detected
